Assay results as given in the supplement of paper PMC10627819.

Columns and labels:
[1] = system: S. aureus Newman; assay: fitness (endpoint OD595 vs no drug) (fraction); higher = more growth
Procedure, shortened: (§1)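 Fitness was measured as bacterial growth in 384-well plates inoculated at OD595 0.01 (30 µl, or 55 µl for S. pneumoniae). Media were TSB, LB Lennox or CY, at 37 °C. OD595 was read every 30 min for 14 h and background-subtracted against the first reading. Fitness is OD595 at the transition into stationary phase divided by the robust mean of no-drug control wells, capped at 1.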

[2] = system: S. aureus DSM 20231; assay: as above
Procedure, shortened: as §1

[3] = system: S. pneumoniae D39V; assay: as above
Procedure, shortened: as §1

[4] = system: B. subtilis 168; assay: as above
Procedure, shortened: as §1

[5] = system: S. aureus Newman; assay: Bliss interaction score (quartile over a dose matrix) (fitness difference); higher = more antagonism (negative = synergy)
Procedure, shortened: (§2)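 Growth was read as OD595 when cultures entered stationary phase, and each value was divided by the plate's robust no-drug mean and capped at 1. This normalised ratio is the fitness value, and fitness for each single drug came from the combination data. The Bliss score subtracts the expected fitness, taken as the product, from the observed fitness and is given as quartiles across technical, biological and donor/recipient replicates.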

[6] = system: S. aureus DSM 20231; assay: as above
Procedure, shortened: as §2

[7] = system: S. pneumoniae D39V; assay: as above
Procedure, shortened: as §2

[8] = system: B. subtilis 168; assay: as above
Procedure, shortened: as §2
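For Bliss interaction score (quartile over a dose matrix) in this document: first quartile when negative (synergy) and third quartile when positive (antagonism).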
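For fitness (endpoint OD595 vs no drug) in this document: OD595 on entry to stationary phase over no-drug wells; at most 1.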

CCCCCCCCCC(=O)N[C@@H](Cc1c[nH]c2ccccc12)C(=O)N[C@H](CC(N)=O)C(=O)N[C@@H](CC(=O)O)C(=O)N[C@@H]1C(=O)NCC(=O)N[C@@H](CCCN)C(=O)N[C@@H](CC(=O)O)C(=O)N[C@H](C)C(=O)N[C@@H](CC(=O)O)C(=O)NCC(=O)N[C@H](CO)C(=O)N[C@@H]([C@H](C)CC(=O)O)C(=O)N[C@@H](CC(=O)c2ccccc2N)C(=O)O[C@@H]1C [Daptomycin] + C[n+]1ccc(-c2cc[n+](C)cc2)cc1 [Paraquat]
fitness
Settings	first compound 0.125 µg/mL	first compound 0.25 µg/mL	first compound 0.5 µg/mL	first compound 1 µg/mL	first compound 2 µg/mL	first compound 4 µg/mL
[1], partner 1.25 µg/mL	≥ 1	≥ 1	0.995	–	–	–
[1], partner 2.5 µg/mL	≥ 1	≥ 1	0.977	–	–	–
[1], partner 5 µg/mL	0.974	0.945	0.9	–	–	–
[2], partner 1.25 µg/mL	0.906	0.9	0.942	0.932	0.883	–
[2], partner 2.5 µg/mL	0.898	0.923	0.991	0.968	0.995	–
[2], partner 5 µg/mL	0.93	0.927	0.924	1	0.907	–
[3], partner 1.5 µg/mL	–	–	–	0.996	0.987	0.936
[3], partner 3 µg/mL	–	–	–	0.973	0.955	0.937
[3], partner 6 µg/mL	–	–	–	0.974	0.922	0.872
[4], partner 1.25 µg/mL	0.901	0.93	0.85	–	–	–
[4], partner 2.5 µg/mL	0.9	0.901	0.902	–	–	–
[4], partner 5 µg/mL	0.894	0.857	0.81	–	–	–

[4], first compound 1 µg/mL, one replicate
Settings	fitness
partner 1.25 µg/mL	0.743
partner 2.5 µg/mL	0.722
partner 5 µg/mL	0.653

Settings	Bliss interaction score
[5]	0.0526
[6]	-0.0451
[7]	0.0711
[8]	0.0589

CCCCCCCCCC(=O)N[C@@H](Cc1c[nH]c2ccccc12)C(=O)N[C@H](CC(N)=O)C(=O)N[C@@H](CC(=O)O)C(=O)N[C@@H]1C(=O)NCC(=O)N[C@@H](CCCN)C(=O)N[C@@H](CC(=O)O)C(=O)N[C@H](C)C(=O)N[C@@H](CC(=O)O)C(=O)NCC(=O)N[C@H](CO)C(=O)N[C@@H]([C@H](C)CC(=O)O)C(=O)N[C@@H](CC(=O)c2ccccc2N)C(=O)O[C@@H]1C [Daptomycin] + COc1c(N2C[C@@H]3CCCN[C@@H]3C2)c(F)cc2c(=O)c(C(=O)O)cn(C3CC3)c12 [Moxifloxacin]
Settings	fitness
[1], first compound 0.125 µg/mL, partner 0.0075 µg/mL	0.751
[1], first compound 0.25 µg/mL, partner 0.0075 µg/mL	0.744
[1], first compound 0.25 µg/mL, partner 0.015 µg/mL	0.636
[1], first compound 0.5 µg/mL, partner 0.0075 µg/mL	0.774
[2], first compound 0.5 µg/mL, partner 0.0075 µg/mL	0.776
[2], first compound 0.5 µg/mL, partner 0.015 µg/mL	0.754
[2], first compound 0.5 µg/mL, partner 0.03 µg/mL	0.673
[2], first compound 1 µg/mL, partner 0.0075 µg/mL	0.837
[2], first compound 1 µg/mL, partner 0.015 µg/mL	0.786
[2], first compound 1 µg/mL, partner 0.03 µg/mL	0.696
[2], first compound 2 µg/mL, partner 0.0075 µg/mL	0.761
[2], first compound 2 µg/mL, partner 0.015 µg/mL	0.749
[2], first compound 2 µg/mL, partner 0.03 µg/mL	0.655
[3], first compound 1 µg/mL, partner 0.005 µg/mL	0.947
[3], first compound 1 µg/mL, partner 0.01 µg/mL	0.965
[3], first compound 1 µg/mL, partner 0.02 µg/mL	0.846
[3], first compound 1 µg/mL, partner 0.0312 µg/mL	0.0587
[3], first compound 1 µg/mL, partner 0.0625 µg/mL	0.0444
[3], first compound 1 µg/mL, partner 0.125 µg/mL	0.0384
[3], first compound 2 µg/mL, partner 0.005 µg/mL	0.946
[3], first compound 2 µg/mL, partner 0.01 µg/mL	0.951
[3], first compound 2 µg/mL, partner 0.02 µg/mL	0.826
[3], first compound 2 µg/mL, partner 0.0312 µg/mL	0.0617
[3], first compound 2 µg/mL, partner 0.0625 µg/mL	0.0424
[3], first compound 2 µg/mL, partner 0.125 µg/mL	0.0433
[3], first compound 4 µg/mL, partner 0.005 µg/mL	0.95
[3], first compound 4 µg/mL, partner 0.01 µg/mL	0.988
[3], first compound 4 µg/mL, partner 0.02 µg/mL	0.885
[3], first compound 4 µg/mL, partner 0.0312 µg/mL	0.0587
[3], first compound 4 µg/mL, partner 0.0625 µg/mL	0.0393
[3], first compound 4 µg/mL, partner 0.125 µg/mL	0.0263
[4], first compound 0.125 µg/mL, partner 0.0312 µg/mL	0.0461
[4], first compound 0.125 µg/mL, partner 0.0625 µg/mL	0.0437
[4], first compound 0.125 µg/mL, partner 0.125 µg/mL	0.0394
[4], first compound 0.125 µg/mL, partner 2 µg/mL	0.0342
[4], first compound 0.125 µg/mL, partner 4 µg/mL	0.0583
[4], first compound 0.125 µg/mL, partner 8 µg/mL	0.0431
[4], first compound 0.25 µg/mL, partner 0.0312 µg/mL	0.0537
[4], first compound 0.25 µg/mL, partner 0.0625 µg/mL	0.0246
[4], first compound 0.25 µg/mL, partner 0.125 µg/mL	0.019
[4], first compound 0.25 µg/mL, partner 2 µg/mL	0.0893
[4], first compound 0.25 µg/mL, partner 4 µg/mL	0.0796
[4], first compound 0.25 µg/mL, partner 8 µg/mL	0.124
[4], first compound 0.5 µg/mL, partner 0.0312 µg/mL	0.0547
[4], first compound 0.5 µg/mL, partner 0.0625 µg/mL	0.026
[4], first compound 0.5 µg/mL, partner 0.125 µg/mL	0.0309
[4], first compound 0.5 µg/mL, partner 2 µg/mL	0.0708
[4], first compound 0.5 µg/mL, partner 4 µg/mL	0.044
[4], first compound 0.5 µg/mL, partner 8 µg/mL	0.0672

fitness, one replicate
Settings	first compound 0.5 µg/mL	first compound 1 µg/mL	first compound 2 µg/mL
[2], partner 0.06 µg/mL	0.667	0.654	0.637
[2], partner 0.12 µg/mL	0.49	0.46	0.46
[4], partner 0.0312 µg/mL	–	0.0152	–
[4], partner 0.0625 µg/mL	–	0.0268	–
[4], partner 0.125 µg/mL	–	0.0146	–

Settings	Bliss interaction score
[5]	0.0375
[6]	-0.0667
[7]	-0.0679
[8]	-0.0294

CCN(CC)CCOC(=O)c1ccc(N)cc1 [Procaine] + COc1ccc(C[C@H](N)C(=O)N[C@H]2[C@@H](O)[C@H](n3cnc4c(N(C)C)ncnc43)O[C@@H]2CO)cc1 [Puromycin]
fitness
Settings	first compound 85.5 µg/mL	first compound 171 µg/mL	first compound 342 µg/mL
[1], partner 0.39 µg/mL	≥ 1	≥ 1	≥ 1
[1], partner 0.78 µg/mL	≥ 1	0.977	0.936
[1], partner 1.56 µg/mL	≥ 1	≥ 1	≥ 1
[2], partner 0.39 µg/mL	0.996	≥ 1	0.916
[2], partner 0.78 µg/mL	≥ 1	≥ 1	≥ 1
[2], partner 1.56 µg/mL	0.994	≥ 1	≥ 1
[3], partner 1 µg/mL	0.974	0.951	0.958
[3], partner 2 µg/mL	0.948	0.966	0.955
[3], partner 4 µg/mL	0.789	0.831	0.814
[4], partner 0.39 µg/mL	0.931	0.964	0.899
[4], partner 0.78 µg/mL	0.935	0.913	0.896
[4], partner 1.56 µg/mL	0.934	0.967	0.958

fitness, [2], one replicate
Settings	first compound 85.5 µg/mL	first compound 171 µg/mL	first compound 342 µg/mL
partner 3.12 µg/mL	0.86	0.879	≥ 1
partner 6.24 µg/mL	0.592	0.646	0.618

Settings	Bliss interaction score
[5]	0.063
[6]	0.047
[7]	0.0736
[8]	0.0785
